US20190183812A1, “Compounds For The Treatment Of Neuromuscular Disorders” (NMD PHARMA A/S, priority 2017, published 2019)

Key:
[1] = test system: isolated rat soleus muscles; assay: Recovery of nerve-stimulated force in isolated rat soleus muscles exposed to sub-maximal tubocurarine; conditions: Rattus norvegicus, 40 min; read-out: 50 μM % change after addition
Method: Experiments were performed using rat soleus muscles from either young (4-wk-old) or adult Wistar rats (12-14-week-old). Animal handling, killing and isolation of muscle is described elsewhere All experiments were performed using normal Krebs-Ringer bicarbonate solution (NKR). In solutions with elevated Mg^2+, MgCl2 was added to NKR-solution causing minor increases in osmolarity and ionic strength. In solutions with elevated K^+, 4 mM NaCl was replaced by 4 mM KCl in the NKR.
In all contraction experiments, isometric force production was determined and force produced during contractions was quantified by measuring the integral of the force response (AUC). Stimulation and force recordings have been described elsewhere. […] In these latter experiments, extracellular recordings of action potentials (M-waves) could be measured without temporal overlap with stimulation artefacts.
The aim was to find compounds that by inhibition of CIC-1 channels can recover nerve-stimulated force under conditions of fatigue including conditions where fatigue is caused by compromised neuromuscular transmission. Neuromuscular transmission dysfunction can develop because of both pre- and/or post-synaptic complications in connection with a disorder or as part of neuromuscular blockade during/after surgery. In the initial series of drug testing, experiments were performed with isolated muscles in the presence of sub-maximal ACh receptor antagonist tubocurarine. Since the inclusion of tubocurarine caused a partial loss of neuromuscular transmission this experiment mimics the conditions in myasthenia gravis and neuromuscular blockade. To mimic conditions with pre-synaptic complication (Lambert Eaton syndrome, motor neuron disorder, polyneuropathy) the intact nerve-muscle preparations were incubated at elevated extracellular Mg^2+, which is known to suppress release of ACh from nerve terminals of motor neurons.
To identify CIC-1 inhibitors that could be used for treatment of neuromuscular disorders we repeated the experiment shown in FIG. 2A but instead of adding 9-AC we added the compounds of interest in different concentrations within the range from 10 to 500 μM. […] For comparison with the muscle only exposed to tubocurarine (grey trace), the two traces have been overlaid. […] For comparison, muscles only exposed to tubocurarine have been included. The dotted line indicates the recovery of force with C8 when compared to the force production before its addition. This value was used in Table 1 for evaluation of the efficacy of the different compounds in recovering force.

CIC-1 ion channels = molecular target: T1, CIC-1 ion channels (Homo sapiens, UniProt P35523); assay: Resting membrane conductance (Gm), three-electrode technique, human muscle: Kd for CIC-1 inhibition; type: cell-based; conditions: concentration that reduced Gm by 50%
T1 construct: Isolated soleus muscles from adult rats or human abdominal muscles preparations were placed in a chamber; from tissue; host or cells: human abdominal muscle from patients

rat soleus muscles [2] = assay: Tubocurarine concentration required to depress nerve-stimulated force by 50% (Kd,tub), combination with acetylcholinesterase inhibitors
Method: FIGS. 5A-5E. […] Muscles from 4-week-old rats were stimulated to contract by activating the motor nerve with short duration pulses in field stimulation. Muscles contracted every 10 min for 2 s in response to 30 Hz stimulation. Four different experimental conditions were used. […] After this pre-incubation, increasing concentrations of tubocurarine were added to the bath solutions with 60 min (corresponding to six contractions) between each increase in tubocurarine. […] FIG. 5C similar to FIG. 5A but this muscle had been pre-incubated with neostigmine. […] The force integral (AUC) was determined at each tubocurarine concentration. Such AUC determinations were plotted against tubocurarine concentration for each muscle.
CIC-1 is a novel target in treatment of neuromuscular complications and it was therefore explored whether this approach for symptomatic treatment could be used in combination with existing symptomatic treatment approaches. In myasthenia gravis, which in isolated muscles was mimicked by tubocurarine, the symptoms of muscle fatigue are most commonly treated with inhibitors of acethylcholineesterase of which neostigmine and pyridostigmine are examples. Also, neostigmine is the most commonly used reversal agent of neuromuscular blocked after surgery. […] FIG. 5A-D show recordings of nerve-stimulated force production at different tubocurarine concentrations when tested under the four experimental conditions. […] To quantify the effect of compounds on tubocurarine sensitivity, the force at the different tubocurarine concentrations was determined. In plots of nerve-stimulated force against tubocurarine concentration (FIG. 5E) Kd,tub was determined by fitting four parameter sigmoidal functions to the data and the Kd,tub for the different compounds have been collected in Table 4.

rat soleus muscles [3] = assay: Mg2+ concentration required to depress nerve-stimulated force by 50% (Kd,Mg2+), combination with 3,4-AP
Method: FIGS. 6A-6E. […] Muscles from 4-week-old rats were stimulated to contract by activating the motor nerve with short duration pulses in field stimulation. Muscles contracted every 10 min for 2 s in response to 30 Hz stimulation. Four different experimental conditions were used. […] C) similar to A) but this muscle had been pre-incubated with 3,4-AP. […] The force integral (AUC) was determined at each extracellular Mg^2+ concentration. AUC was plotted against Mg^2+ concentration and the data was fitted to a sigmoidal function. This provided the extracellular Mg^2+ concentration that was required to reduce the nerve-stimulated force to 50% (Mg50) under the four different conditions (see Table 5).
While the use of tubocurarine mimics conditions with reduced neuromuscular transmission due to post-synaptic dysfunction (myasthenia gravis, neuromuscular blockade), the experiments with elevated extracellular Mg^2+ mimics conditions with pre-synaptic dysfunction akin to a range of neuromuscular disorders including Lambert Eaton syndrome, motor neuron disorders and polyneuropathy. Patients with Lambert Eaton syndrome are commonly treated with inhibitors of voltage gated K^+ channels such as 3,4-diaminopyridine (3,4-AP). Based on this it was determined whether recovery of nerve-stimulated force at elevated extracellular Mg^2+ with CIC-1 inhibiting compounds could be added to force recovery with 3,4-AP. […] FIG. 6A-D show recordings of nerve-stimulated force production at different Mg^2+ concentrations when tested under these four experimental conditions. […] To quantify the effect of compounds on Mg^2+ sensitivity the force at the different Mg^2+ concentrations was determined. In plots of nerve-stimulated force against Mg^2+ concentration (FIG. 6E) the Kd,Mg^2+ was determined by fitting four parameter sigmoidal function to the data. Kd, Mg^2+ for the different compounds have been collected in Table 5.

rat soleus muscles [4] = type: cell-based; conditions: 10 and 25 μM; 1 μM μ-conotoxin GiiiB
isolated human muscles = conditions: 150 μM; elevated K+ and TTX
rats [5] = assay: Rotarod running performance of rats after I.P. tubocurarine (myasthenia like phenotype); type: in vivo, rat; conditions: 20 mg/kg I.P., 2 hrs before tubocurarine 0.13 mg/kg
Method: FIGS. 9A-9B. […] FIG. 9A illustrates the design of the experiments. Prior to Day One the animals had been familiarized to the rotarod in three training sessions distributed over two days.
(§1) In both series of experiments, running performance was tested on a rotarod using a protocol where the rod was accelerated gradually over a 5 min period, and the running time and covered distance before falling off the rod were measured. […] Experiments with tubocurarine were carried out over two days, and on each day the effect of tubocurarine on running performance was tested. On the first day only tubocurarine was injected. […] On the second day, the animals were first allowed to run on the rotarod, and all animals performed normally. […] The allocation of the animals into the two groups (C8 or sham) was random and unknown to the experimenter (blinded experimental design).
In the first series of in vivo experiments, myasthenia gravis was simply mimicked by I.P. injection of tubocurarine (0.13 mg/kg) in animals that had been familiarized to running on the rotarod. On the first of two consecutive days, tubocurarine was injected I.P. and the running performance of the animal was tested 21 minutes after this injection. On the second day of experimentation, the animals first performed a test run to ensure that they were no longer affected by the tubocurarine injected the day before. […]

rats [6] = assay: Rotarod running performance in passive immunization (MAB35) rat model of myasthenia gravis; type: in vivo
Method: FIG. 10. […] Prior to I.P. injection of MAB35 the animals had been familiarized to the rotarod over three training sessions distributed over two days. […] After this treatment performance was monitored every second hour. *Indicates significant different as evaluated using student t-test.
as §1
In experiments with MAB35, animals were first familiarized with the rotarod over two consecutive days and then injected I.P. with MAB35. After injection, rotarod performance was then again monitored regularly over the consecutive two days. […] A considerable number of animals, however, became moribund failing to walk and they had altered ventilation (rapid) and pronounced ptosis. These animals were not included in experiments. […]

T1 sequence (P35523 whole entry): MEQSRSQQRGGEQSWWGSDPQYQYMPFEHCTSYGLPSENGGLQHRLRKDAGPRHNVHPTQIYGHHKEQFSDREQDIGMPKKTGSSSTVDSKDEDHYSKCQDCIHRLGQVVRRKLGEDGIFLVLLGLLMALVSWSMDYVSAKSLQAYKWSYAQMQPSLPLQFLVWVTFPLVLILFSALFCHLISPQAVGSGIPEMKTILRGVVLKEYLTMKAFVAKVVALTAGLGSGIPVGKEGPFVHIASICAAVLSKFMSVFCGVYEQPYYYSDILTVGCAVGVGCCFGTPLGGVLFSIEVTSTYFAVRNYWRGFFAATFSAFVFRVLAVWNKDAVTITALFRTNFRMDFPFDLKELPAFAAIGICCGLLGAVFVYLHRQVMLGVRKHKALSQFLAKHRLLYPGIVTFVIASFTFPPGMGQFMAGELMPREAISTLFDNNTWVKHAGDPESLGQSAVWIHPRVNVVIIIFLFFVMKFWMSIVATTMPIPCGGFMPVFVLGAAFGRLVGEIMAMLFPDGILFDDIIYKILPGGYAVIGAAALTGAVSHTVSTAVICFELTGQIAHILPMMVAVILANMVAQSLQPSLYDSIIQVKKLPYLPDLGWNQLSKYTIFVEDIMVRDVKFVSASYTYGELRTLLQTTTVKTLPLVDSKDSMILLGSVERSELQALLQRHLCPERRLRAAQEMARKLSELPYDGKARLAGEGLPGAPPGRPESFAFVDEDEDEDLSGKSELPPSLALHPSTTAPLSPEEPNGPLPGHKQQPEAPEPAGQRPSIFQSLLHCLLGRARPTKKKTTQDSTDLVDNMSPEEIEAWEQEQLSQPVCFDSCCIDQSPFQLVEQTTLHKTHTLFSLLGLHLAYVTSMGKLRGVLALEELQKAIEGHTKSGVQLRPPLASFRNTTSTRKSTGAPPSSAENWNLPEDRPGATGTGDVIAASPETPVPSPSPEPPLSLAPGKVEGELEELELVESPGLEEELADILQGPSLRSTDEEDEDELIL

With `C[C@H](Oc1ccc(Br)cc1)C(=O)O` [Compound C8, (2S)-2-(4-bromophenoxy)propanoic acid] the activation at 50 µM [1] was 16%, the Kd (CIC-1 ion channels) was 5.5 µM and the Kd (rat soleus muscles [2]; Compound (50 μM) + Neostigmine (10 nM)) was 0.218 ± 0.018 µM. The Kd (rat soleus muscles [2]; Compound (50 μM) + Pyridostigmine (100 nM)) was 0.186 ± 0.005 µM, the Kd (rat soleus muscles [2]; Compound (50 μM) alone) was 0.177 ± 0.007 µM and the “effect of combination on recovery of neuromuscular transmission” value (rat soleus muscles [3]; C8 and 3,4-diaminopyridine together) was “unexpected synergistic effect”. For the same compound, the Kd (rat soleus muscles [3]; Compound (50 μM) + 3,4-AP (10 μM)) was 7800 ± 500 µM, the Kd (rat soleus muscles [3]; Compound (50 μM) alone) was 4000 ± 100 µM and the EPP amplitude (rat soleus muscles [4]) was “significantly larger EPPs”. For the same compound, the contractile force (isolated human muscles) was “markedly recovery”, the “increase in distance run on the second day compared to the first day” value (rats [5]) was “around 150%” and the “rotarod performance after injection” value (rats [6]; 20 mg/kg) was “decline was reduced”. The “rotarod performance after injection” value (rats [6]; 30 mg/kg) was “clear recovery of performance”.
